Results on 5 compounds are retold here after PubChem BioAssay AID1963440 (Molecular Pharmacology Branch, DTP, NCI, 2024).

“And” between values parts separate entries of the source, which are not always exact repeats. Equal entries are not always repeated. Where only a bound is given, the exact number is not on record here.

The test system of this assay is NCI-H1417 complex spheroids, growth % test/control. The experiment in a line: Anticancer human tumor NCI-H1417 cell line growth inhibition [Asc].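 On all read-outs here: spheroids exposed to compounds for 7 days.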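 On viability, T/C: 100% = DMSO vehicle control wells.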 The following applies: for viability, T/C: stronger effect = lower value. In outline:
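Tumor cells were grown as multicellular spheroids with stromal HUVEC and mesenchymal stem cells and treated singly or in combination. Concentrations fell in half-log steps from the clinical Cmax, or from 10 microM where none was known.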

Setting [1] is: curve of first compound, second compound 0.03 µM.
[2] abbreviates: curve of first compound, second compound 0.0949 µM.
Where [3] appears, read: curve of first compound, second compound 0.3 µM.
Where [4] appears, read: curve of first compound, second compound 0.949 µM.
[5] abbreviates: curve of first compound, second compound 3 µM.
The mark [6] stands for this setting: second compound 0.03 µM, first compound 0.0316 µM.
Setting [7] is: second compound 0.03 µM, first compound 0.1 µM.
[8] abbreviates: second compound 0.03 µM, first compound 0.316 µM.
The mark [9] stands for this setting: second compound 0.03 µM, first compound 1 µM.
Setting [10] is: second compound 0.03 µM, first compound 3.16 µM.
The mark [11] stands for this setting: second compound 0.03 µM, first compound 10 µM.
Setting [12] is: second compound 0.0949 µM, first compound 0.0316 µM.
Where [13] appears, read: second compound 0.0949 µM, first compound 0.1 µM.
The mark [14] stands for this setting: second compound 0.0949 µM, first compound 0.316 µM.
Where [15] appears, read: second compound 0.0949 µM, first compound 1 µM.
Where [16] appears, read: second compound 0.0949 µM, first compound 3.16 µM.
The mark [17] stands for this setting: second compound 0.0949 µM, first compound 10 µM.
Where [18] appears, read: second compound 0.3 µM, first compound 0.0316 µM.
The mark [19] stands for this setting: second compound 0.3 µM, first compound 0.1 µM.
[20] abbreviates: second compound 0.3 µM, first compound 0.316 µM.
[21] abbreviates: second compound 0.3 µM, first compound 1 µM.
Where [22] appears, read: second compound 0.3 µM, first compound 3.16 µM.
The mark [23] stands for this setting: second compound 0.3 µM, first compound 10 µM.
Where [24] appears, read: second compound 0.949 µM, first compound 0.0316 µM.
The mark [25] stands for this setting: second compound 0.949 µM, first compound 0.1 µM.
The mark [26] stands for this setting: second compound 0.949 µM, first compound 0.316 µM.
[27] abbreviates: second compound 0.949 µM, first compound 1 µM.
[28] abbreviates: second compound 0.949 µM, first compound 3.16 µM.
[29] abbreviates: second compound 0.949 µM, first compound 10 µM.
Where [30] appears, read: second compound 3 µM, first compound 0.0316 µM.
[31] abbreviates: second compound 3 µM, first compound 0.1 µM.
The mark [32] stands for this setting: second compound 3 µM, first compound 0.316 µM.
[33] abbreviates: second compound 3 µM, first compound 1 µM.
Where [34] appears, read: second compound 3 µM, first compound 3.16 µM.
Where [35] appears, read: second compound 3 µM, first compound 10 µM.

In the case of `Cc1nc(N2CCC3(CC2)COC(C)C3N)c(CO)nc1Sc1ccnc(N)c1Cl` (centres undefined), the viability, T/C was 83.4% and 92.6% and 92.5% (compound 0.00949 µM); 82.8% and 102% and 101% (compound 0.03 µM); 104% and 101% and 77.7% (compound 0.0949 µM); 112% and 84.2% and 93% (compound 0.3 µM); 101% and 84% and 83.2% (compound 0.949 µM); 76.5% and 70.5% and 76.4% (compound 3 µM). Besides, the IC50 (curve of compound) is above 3 µM.

In the case of `C#Cc1c(F)ccc2cc(O)cc(-c3ncc4c(N5CC6CCC(C5)N6)nc(OCC56CCCN5CC(F)C6)nc4c3F)c12` (centres undefined) + CCN1C(C(=O)NC23CCC(C(=O)O)(CC2)CC3)C(c2cccc(Cl)c2F)C2(C(=O)Nc3cc(Cl)ccc32)C12CCCCC2, the IC50 runs as follows: under setting [1], above 10 µM; under setting [2], above 10 µM; under setting [3], above 10 µM; under setting [4], above 10 µM; under setting [5], above 10 µM. The viability, T/C by setting is: under setting [6], 101%; under setting [7], 106%; under setting [8], 106%; under setting [9], 102%; under setting [10], 103%; under setting [11], 111%. Moreover, the viability, T/C runs as follows: under setting [12], 107%; under setting [13], 103%; under setting [14], 93.9%; under setting [15], 95.2%; under setting [16], 108%; under setting [17], 109%. Further, the viability, T/C was 98.2% under setting [18]; 94.7% under setting [19]; 94.8% under setting [20]; 105% under setting [21]; 108% under setting [22]; 108% under setting [23]. Moreover, the viability, T/C was 88.2% under setting [24]; 96.9% under setting [25]; 97.3% under setting [26]; 88.3% under setting [27]; 84% under setting [28]; 77.3% under setting [29]. The viability, T/C under setting [30] is 91%; the viability, T/C under setting [31] is 88.1%; the viability, T/C under setting [32] was 105%; the viability, T/C under setting [33] was 88.7%; the viability, T/C under setting [34] is 89.5%; the viability, T/C under setting [35] is 95.7%.

Turning to `C=CC(=O)N1CCN(c2nc(=O)n(-c3c(C)ccnc3C(C)C)c3nc(-c4c(O)cccc4F)c(F)cc23)C(C)C1` (centres undefined) + CCN1C(C(=O)NC23CCC(C(=O)O)(CC2)CC3)C(c2cccc(Cl)c2F)C2(C(=O)Nc3cc(Cl)ccc32)C12CCCCC2, the IC50 under setting [1] was above 10 µM; the concentration for half-maximal inhibition (IC50) under setting [2] was above 10 µM; the IC50 under setting [3] was above 10 µM; the IC50 under setting [4] was above 10 µM; the half-inhibitory concentration (IC50) under setting [5] was above 10 µM. Also, the viability, T/C runs as follows: under setting [6], 94.4%; under setting [7], 100%; under setting [8], 109%; under setting [9], 101%; under setting [10], 115%; under setting [11], 105%. Besides, the viability, T/C is 102% under setting [12]; 94.4% under setting [13]; 98.4% under setting [14]; 101% under setting [15]; 104% under setting [16]; 119% under setting [17]. The viability, T/C runs as follows: under setting [18], 102%; under setting [19], 107%; under setting [20], 106%; under setting [21], 94.3%; under setting [22], 99.8%; under setting [23], 112%. Besides, the viability, T/C by setting is: under setting [24], 94.3%; under setting [25], 95.4%; under setting [26], 93.1%; under setting [27], 97.9%; under setting [28], 95.5%; under setting [29], 99.5%. Moreover, the viability, T/C runs as follows: under setting [30], 91.6%; under setting [31], 93.2%; under setting [32], 98.5%; under setting [33], 93.7%; under setting [34], 93.4%; under setting [35], 103%.

As to `C=C(F)C(=O)N1CCN(c2nc(OCC3CCCN3C)nc3c2CCN(c2cccc4cccc(Cl)c24)C3)CC1CC#N` (centres undefined) + Cc1c(S(C)(=O)=O)c(-c2cc(F)cc(N3CCN(c4ccc(NS(=O)(=O)c5ccc(NC(CCN6CCC(C(=O)OCCCP(=O)(O)O)CC6)CSc6ccccc6)c(S(=O)(=O)C(F)(F)F)c5)cc4)CC3)c2)c(-c2ccc(Cl)cc2)n1C(C)C, the 50% inhibitory concentration (IC50) runs as follows: (curve of first compound, second compound 0.1 µM) 1.24 µM; (curve of first compound, second compound 0.316 µM) below 0.0316 µM; (curve of first compound, second compound 1 µM) below 0.0316 µM; (curve of first compound, second compound 3.16 µM) below 0.0316 µM; (curve of first compound, second compound 10 µM) below 0.0316 µM. In addition, the viability, T/C was 75.7% (second compound 0.1 µM, first compound 0.0316 µM); 80% (second compound 0.1 µM, first compound 0.1 µM); 67.9% (second compound 0.1 µM, first compound 0.316 µM); 61.1% (second compound 0.1 µM, first compound 1 µM); 1.57% (second compound 0.1 µM, first compound 3.16 µM); 0.85% (second compound 0.1 µM, first compound 10 µM). In addition, the viability, T/C is 43.5% (second compound 0.316 µM, first compound 0.0316 µM); 46% (second compound 0.316 µM, first compound 0.1 µM); 35.5% (second compound 0.316 µM, first compound 0.316 µM); 14% (second compound 0.316 µM, first compound 1 µM); 0.94% (second compound 0.316 µM, first compound 3.16 µM); 0.12% (second compound 0.316 µM, first compound 10 µM). For the same compound, the viability, T/C by setting is: (second compound 1 µM, first compound 0.0316 µM) 12.3%; (second compound 1 µM, first compound 0.1 µM) 9.05%; (second compound 1 µM, first compound 0.316 µM) 5.54%; (second compound 1 µM, first compound 1 µM) 2.95%; (second compound 1 µM, first compound 3.16 µM) 0.15%; (second compound 1 µM, first compound 10 µM) 0.11%. Further, the viability, T/C reads like this: (second compound 3.16 µM, first compound 0.0316 µM) 2.93%; (second compound 3.16 µM, first compound 0.1 µM) 2.78%; (second compound 3.16 µM, first compound 0.316 µM) 2.82%; (second compound 3.16 µM, first compound 1 µM) 2.57%; (second compound 3.16 µM, first compound 3.16 µM) 0.11%; (second compound 3.16 µM, first compound 10 µM) 0.12%. In addition, the viability, T/C was 2.01% (second compound 10 µM, first compound 0.0316 µM); 2.86% (second compound 10 µM, first compound 0.1 µM); 3.34% (second compound 10 µM, first compound 0.316 µM); 1.29% (second compound 10 µM, first compound 1 µM); 0.21% (second compound 10 µM, first compound 3.16 µM); 0.19% (second compound 10 µM, first compound 10 µM).

With `C=CC(=O)N1CCN(c2nc(=O)n(-c3c(C)ccnc3C(C)C)c3nc(-c4c(O)cccc4F)c(F)cc23)C(C)C1` (centres undefined), the viability, T/C reads like this: (compound 0.0316 µM) 111% and 108% and 110%; (compound 0.1 µM) 105% and 90.2% and 96.7%; (compound 0.316 µM) 112% and 98.4% and 106%; (compound 1 µM) 111% and 105% and 101%; (compound 3.16 µM) 99.4% and 104% and 103%; (compound 10 µM) 99.5% and 102% and 94.5%. The half-inhibitory concentration (IC50) (curve of compound) was above 10 µM.
